For five compounds, inhibition results are on record in ChEMBL document CHEMBL1158740, “Oxylipins arabidopsides C and D from Arabidopsis thaliana” (2005).

This experiment deals with Lepidium sativum. The experiment is described as follows: Inhibition of Lepidium sativum cress root growth at 5X10'-5 mol/L after 40 hrs. In kind it is functional.

Molecules are shown by their SMILES.

By inhibition is commonly meant the percentage by which the read-out fell short of the control. The low end stands for little suppression, the high end for strong suppression. Regarding `CC/C=C\CC1C(=O)C=CC1CCCCCCCC(=O)O` (cis isomer), the inhibition at 50 µM came out at 50%.
Consider `CC/C=C\C[C@H]1C(=O)C=C[C@H]1CCCCCCCC(=O)OC[C@H](CO[C@@H]1O[C@H](CO)[C@H](O)[C@H](O)[C@H]1O)OC(=O)CCCCC[C@@H]1C=CC(=O)[C@@H]1C/C=C\CC` [ARABIDOPSIDE A], for which at 50 µM the inhibition was 30%.
Under `CC/C=C\C[C@H]1C(=O)C=C[C@H]1CCCCCCCC(=O)OC[C@H](CO[C@@H]1O[C@H](CO)[C@H](O)[C@H](O)[C@H]1O)OC(=O)CCCCCCC[C@@H]1C=CC(=O)[C@@H]1C/C=C\CC` [ARABIDOPSIDE B] stands 30%; under `CC/C=C\CC1C(=O)C=CC1CCCCCCCC(=O)OCC(CO[C@@H]1O[C@H](CO[C@H]2O[C@H](CO)[C@H](O)[C@H](O)[C@H]2O)[C@H](O)[C@H](O)[C@H]1O)OC(=O)CCCCCCCC1C=CC(=O)C1C/C=C\CC` (stereo not given in full) [Arabidopside D], 30%.
With `CC/C=C\C[C@H]1C(=O)CC[C@@H]1CC(=O)O` [JASMONIC ACID], the inhibition at 50 µM turned out to be 50%.
